For data set [1] the following is noted: cited from earlier work; for AcH sequestration (trapping) in vivo: earlier studies (Nagasawa et al., J. Med. Chem, 1987).
In a further data set the test system is rat hepatocytes. Kind of data set: Test B: Sequestration of AcH in a hepatocyte system. Conditions: ethanol 20 mM; for lowering of the concentration of ethanol-derived AcH: compound 1.0 mM (1/20 molar concentration of ethanol), at two hrs, vs ethanol control without dipeptide, FIG. 4. The data set is classed as cell-based. As for the experimental part: Test B: Sequestration of AcH in a hepatocyte system.
Hepatocytes from male Wistar rats were isolated and cultured under conditions previously described. On culture day two, ethanol and representative compounds of the invention were added to the culture medium to final concentrations of 20 mM and 1.0 mM, respectively. After 2 hours, 1.0 ml of medium was removed and added to a semicarbazide/sodium azide mixture and frozen until assayed for AcH by gas chromatography. AcH was measured before the addition of ethanol and representative compounds of the invention and 2 hours after incubation, and the values compared against ethanol control without dipeptides. In experiments with cyanamide (to inhibit AlDH), the cyanamide was added with the ethanol to give a final concentration in the culture medium of 50 mM. Results are depicted in FIGS. 4 and 5.

Data set [2] is described as follows: Test A: Sequestration of AcH in a cell-free system. The class given is biochemical. Conditions: AcH 40 nmol, compound 400 nmol, 4.0 mM DTT, pH 7.4, 30 minute incubation at 37° C.; compared with 1 (positive control); FIG. 3. As for the experimental part:
Test A: Sequestration of AcH in a cell-free system. AcH (40 nmol) was incubated without (control) and with representative compounds of the invention (400 nmol) in a reaction mixture containing 4.0 mM dithiothreitol (DTT) and 40 mM potassium phosphate buffer (pH 7.4) in a total volume of 1.2 ml. The AcH remaining after a 30 minute incubation period at 37° C. was quantified by headspace GC analysis. DTT was included in the reaction mixture to maintain the thiols in their reduced state.

A word on the melting point: it is the temperature of the solid-liquid transition.

Regarding `CC(C)[C@H](NC(=O)[C@H](N)C(C)(C)S)C(=O)O.Cl`, the melting point is 263 to 265.5 °C (dec.).

Regarding `NC(C(=O)O)C1(S)CCCC1` (racemic) [Compound 2, β,β-tetramethylene-DL-cysteine], the “AcH sequestration (trapping) in vivo” value in data set [1] is reported as “best β-mercapto-α-amino acid sequestration agents for AcH in vivo”.

In the case of `CC(C)(S)[C@@H](N)C(=O)O` [Compound 1, D(−)-penicillamine], in data set [1], the “AcH sequestration (trapping) in vivo” value is recorded as “best β-mercapto-α-amino acid sequestration agents for AcH in vivo”.

`CC(C)(S)[C@@H](N)C(=O)NCC(=O)O.Cl` [Compound 6a, D-Penicillamylglycine Hydrochloride]: the melting point was in the range of 67 to 71 °C. Also, the “lowering of the concentration of ethanol-derived AcH” value with rat hepatocytes is recorded as 79%. The “reduction of ethanol-derived AcH concentration in presence of cyanamide” value in the data set on rat hepatocytes (compound 1.0 mM, cyanamide (AlDH inhibitor) 50 mM, 2 hours, vs control without dipeptide, FIG. 5) amounted to 33%.

`CC(N)(CC(=O)[C@H](N)C(C)(C)S)C(=O)O.Cl` (stereo partly drawn) [Compound 6c, D-Penicillamyl-α-aminoisobutyric acid hydrochloride]: the melting point is 145 to 148 °C.

Compound `CC(C)(S)[C@@H](N)C(=O)NCCC(=O)O.Cl` [Compound 6d, D-Penicillamyl-β-alanine Hydrochloride] yielded a melting point of 71 to 75 °C. The “lowering of the concentration of ethanol-derived AcH” value in the data set with rat hepatocytes is 84%.

Consider `N[C@@H](CCS)C(=O)O` [L-Homocysteine], for which, in data set [2], the “AcH sequestering activity (AcH remaining by headspace GC)” value is listed as “comparable to 1”. In addition, the “AcH sequestration (trapping) in vivo” value in data set [1] was “not to be an effective AcH-trapping agent in vivo”. Moreover, the metabolism in vivo entry in data set [1] (given as reason for lack of AcH trapping) is recorded as “metabolized too rapidly in vivo”.

As for `CSCC[C@H](N)C(=O)O` [Methionine], the “AcH sequestering activity (AcH remaining by headspace GC)” value in data set [2] is “totally without AcH sequestering activity”.

Regarding `N#CN` [cyanamide], the “increase in ethanol-derived AcH” value in the data set with rat hepatocytes (cyanamide in incubation medium (50 mM), control without dipeptide, FIG. 5) was found to be 45 fold.

For `N[C@@H](CO)C(=O)O` [serine], the “AcH sequestering activity (AcH remaining by headspace GC)” value in data set [2] is listed as “totally without AcH sequestering activity”.

Regarding `C[C@@H](O)[C@H](N)C(=O)O` [threonine], in data set [2], the “AcH sequestering activity (AcH remaining by headspace GC)” value is on record as “totally without AcH sequestering activity”.

The values are drawn from patent publication US6686336B2, “N-terminal D(-)-penicillamine peptides as aldehyde sequestration agents” (Federal Government as represented by the Department of …, priority 2000, dated 2004).
